Reference: US20260000783A1, “ANTIBODY-DRUG CONJUGATE WITH IMPROVED THERAPEUTIC WINDOW” (priority 2018, published 2026)

Key:
Hela cells = assay: Cell viability assay (MTS) of HeLa cells with SO1861 + dianthin-EGF and PAMAM, PAMAM-conjugates, G4-dendron or chloroquine; format: cell-based, human; conditions: positive control
Procedure: Hela cells were seeded in DMEM (PAN-Biotech GmbH) supplemented with 10% fetal bovine serum (PAN-Biotech GmbH) and 1% penicillin/streptomycin (PAN-Biotech GmbH), in a 96 well plate at 5,000 c/w in 100 μL/well and incubated overnight at 37° C. and 5% CO2. The next day 20× concentrated stocks of the PAMAM, PAMAM-conjugates, G4-dendron (prepared in Example 3) or chloroquine (Sigma Aldrich) samples were prepared in DMEM. The media was removed from the cell culture plate and replaced by 160 μL culture media, followed by the addition of 10 μL sample/well (from the 20× concentrated stocks) and a 45 min incubation at 37° C. […] Followed by 15 sec sonication and a brief re-heating at 50° C. for 1 min, while shaking at 1,250 rpm. Subsequently a serial dilution of SO1861 was prepared in PBS.
Scientific Multiskan FC plate reader (Thermo Scientific).

[1] = tested on: SK-BR-3, JIMT-1, MDA-MB-468, A431, CaSKi, HeLa, A2058; assay: Control treatments on all cell lines, relative cell viability (Example 8); format: cell-based, human; conditions: wide range of toxin concentrations, up to 100.000 pM (FIG. 14D)

CCN(CC)CCCC(C)Nc1ccnc2cc(Cl)ccc12 (centres unmarked) [Chloroquine]
fold increase in glycoside amount to observe 50% cell killing (Hela cells): 2 fold

saporin
relative cell viability [1]: do not or hardly have any influence on cell viability
